Laboratory results: US11077088B2, “Composition and apparatus for treatment of chemotherapy induced alopecia” (Paxman Coolers Ltd, priority 2016, dated 2021)

System: HaCaTa cells

| Structure (SMILES) | protection from drug-induced toxicity (Absorbance units) (0.625 mM NAC plus cooling at 22° C., extremely high doses of 4-OH-CP (FIG. 5)) | cytoprotection from combinatorial drug treatment (AC), versus cooling alone (0.625 mM NAC plus cooling at 26° C. or 22° C., sequential doxorubicin 3 μg/ml (1 h) and 4-OH-CP 5 μg/ml (1 h) (FIG. 7)) | cytoprotection of cooling at 26° C. with inhibition of ROS, compared with 22° C. at same CP concentration (0.625 mM NAC plus cooling at 26° C., 4-OH-CP (FIG. 4 vs FIG. 3)) | protection from drug-induced toxicity (% relative to control) (0.625 mM NAC plus cooling at 26° C., extremely high doses of doxorubicin (FIG. 6)) | cytotoxicity of the drug in keratinocytes |
| --- | --- | --- | --- | --- | --- |
| CC(=O)N[C@@H](CS)C(=O)O [NAC, N-acetyl-cysteine] | strikingly high levels of protection | better cytoprotection | highly cytoprotective | strikingly high levels of protection |  |
| COc1cccc2c1C(=O)c1c(O)c3c(c(O)c1C2=O)C[C@@](O)(C(=O)CO)C[C@@H]3O[C@H]1C[C@H](N)[C@H](O)[C@H](C)O1 [doxorubicin] |  |  |  |  | nearly total cytotoxicity (death) |
